Reference: patent US20060069132A1, “Azolecarboxamide herbicides” (priority 2004, published 2006)

Experiments:
Test in all cases: Test E pre-/postemergence herbicide test
barnyardgrass = format: in vivo, Echinochloa crus-galli
Summary of the method: (§1)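 Visual 0–100 rating vs untreated controls (0 = no effect, 100 = complete control), 12–14 d after treatment in greenhouse. Pre- and postemergence (2–18 cm, 1- to 4-leaf) applications; compounds in non-phytotoxic solvent with surfactant.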

prickly sida = format: in vivo, Sida spinosa
Summary of the method: as §1

mustard = format: in vivo, Brassica nigra
Summary of the method: as §1

common ragweed = format: in vivo, Ambrosia elatior
Summary of the method: as §1

southern sandbur = format: in vivo, Cenchrus echinatus
Summary of the method: as §1

tropical spiderwort = format: in vivo, Commelina benghalensis
Summary of the method: as §1

annual bluegrass = format: in vivo, Poa annua
Summary of the method: as §1

common chickweed = format: in vivo, Stellaria media
Summary of the method: as §1

pitted morningglory = format: in vivo, Ipomoea lacunosa
Summary of the method: as §1

large crabgrass = format: in vivo, Digitaria sanguinalis
Summary of the method: as §1

johnsongrass = format: in vivo, Sorghum halepense
Summary of the method: as §1

[1] = Postemergence, 250 g ai/ha, scale 0 to 100
[2] = Preemergence, 62 g ai/ha, scale 0 to 100
[3] = Preemergence, 125 g ai/ha, scale 0 to 100
[4] = Preemergence, 250 g ai/ha, scale 0 (no effect) to 100 (complete control)
[5] = Preemergence, 500 g ai/ha, scale 0 (no effect) to 100 (complete control)
[6] = postemergence, 125 g ai/ha, scale 0 to 100
[7] = postemergence, 62 g ai/ha, scale 0 to 100
[8] = Postemergence, 500 g ai/ha, scale 0 to 100

Compound: CCc1nn(C(C)(C)C)cc1C(=O)Nc1cc(C(=O)N(C)C)ccc1F [Compound 222, N-[5-[(dimethylamino)carbonyl]-2-fluorophenyl]-1-(1,1-dimethylethyl)-3-ethyl-1H-pyrazole-4-carboxamide]
- Plant response rating, Barnyardgrass (barnyardgrass; [1]): 70
- Plant response rating, Barnyardgrass (barnyardgrass; [2]): 50
- Plant response rating, Barnyardgrass (barnyardgrass; [3]): 90
- Plant response rating, Barnyardgrass (barnyardgrass; [4]): 100
- Plant response rating, Barnyardgrass (barnyardgrass; [5]): 100
- Plant response rating, Barnyardgrass (barnyardgrass; [6]): 50
- Plant response rating, Barnyardgrass (barnyardgrass; [7]): 50
- Plant response rating, Prickly Sida (prickly sida; [8]): 100
- Plant response rating, Prickly Sida (prickly sida; [1]): 100
- Plant response rating, Prickly Sida (prickly sida; [2]): 20
- Plant response rating, Prickly Sida (prickly sida; [3]): 70
- Plant response rating, Prickly Sida (prickly sida; [4]): 100
- Plant response rating, Prickly Sida (prickly sida; [5]): 100
- Plant response rating, Prickly Sida (prickly sida; [6]): 100
- Plant response rating, Prickly Sida (prickly sida; [7]): 90
- Plant response rating, Black Mustard (mustard; [8]): 95
- Plant response rating, Black Mustard (mustard; [1]): 95
- Plant response rating, Black Mustard (mustard; [2]): 90
- Plant response rating, Black Mustard (mustard; [3]): 100
- Plant response rating, Black Mustard (mustard; [4]): 100
- Plant response rating, Black Mustard (mustard; [5]): 100
- Plant response rating, Black Mustard (mustard; [6]): 90
- Plant response rating, Black Mustard (mustard; [7]): 90
- Plant response rating, Ragweed (common ragweed; [1]): 70
- Plant response rating, Ragweed (common ragweed; [2]): 30
- Plant response rating, Ragweed (common ragweed; [3]): 85
- Plant response rating, Ragweed (common ragweed; [4]): 95
- Plant response rating, Ragweed (common ragweed; [5]): 95
- Plant response rating, Ragweed (common ragweed; [6]): 60
- Plant response rating, Ragweed (common ragweed; [7]): 20
- Plant response rating, Sandbur (southern sandbur; [8]): 80
- Plant response rating, Sandbur (southern sandbur; [1]): 50
- Plant response rating, Sandbur (southern sandbur; [2]): 0
- Plant response rating, Sandbur (southern sandbur; [3]): 40
- Plant response rating, Sandbur (southern sandbur; [4]): 70
- Plant response rating, Sandbur (southern sandbur; [5]): 95
- Plant response rating, Sandbur (southern sandbur; [6]): 10
- Plant response rating, Sandbur (southern sandbur; [7]): 10
- Plant response rating, Spiderwort (tropical spiderwort; [1]): 60
- Plant response rating, Spiderwort (tropical spiderwort; [5]): 95
- Plant response rating, Spiderwort (tropical spiderwort; [6]): 40
- Plant response rating, Bluegrass (annual bluegrass; [8]): 90
- Plant response rating, Bluegrass (annual bluegrass; [1]): 90
- Plant response rating, Bluegrass (annual bluegrass; [2]): 90
- Plant response rating, Bluegrass (annual bluegrass; [3]): 100
- Plant response rating, Bluegrass (annual bluegrass; [4]): 100
- Plant response rating, Bluegrass (annual bluegrass; [5]): 100
- Plant response rating, Bluegrass (annual bluegrass; [6]): 80
- Plant response rating, Bluegrass (annual bluegrass; [7]): 60
- Plant response rating, Chickweed (common chickweed; [8]): 100
- Plant response rating, Chickweed (common chickweed; [1]): 100
- Plant response rating, Chickweed (common chickweed; [2]): 80
- Plant response rating, Chickweed (common chickweed; [3]): 100
- Plant response rating, Chickweed (common chickweed; [4]): 100
- Plant response rating, Chickweed (common chickweed; [5]): 100
- Plant response rating, Chickweed (common chickweed; [6]): 100
- Plant response rating, Chickweed (common chickweed; [7]): 80
- Plant response rating, Morningglory (pitted morningglory; [8]): 90
- Plant response rating, Morningglory (pitted morningglory; [1]): 60
- Plant response rating, Morningglory (pitted morningglory; [3]): 30
- Plant response rating, Morningglory (pitted morningglory; [4]): 40
- Plant response rating, Morningglory (pitted morningglory; [5]): 95
- Plant response rating, Morningglory (pitted morningglory; [6]): 40
- Plant response rating, Morningglory (pitted morningglory; [7]): 20
- Plant response rating, Crabgrass, Large (large crabgrass; [8]): 100
- Plant response rating, Crabgrass, Large (large crabgrass; [1]): 90
- Plant response rating, Crabgrass, Large (large crabgrass; [2]): 70
- Plant response rating, Crabgrass, Large (large crabgrass; [3]): 100
- Plant response rating, Crabgrass, Large (large crabgrass; [4]): 100
- Plant response rating, Crabgrass, Large (large crabgrass; [5]): 100
- Plant response rating, Crabgrass, Large (large crabgrass; [6]): 80
- Plant response rating, Crabgrass, Large (large crabgrass; [7]): 60
- Plant response rating, Johnsongrass (johnsongrass; [1]): 60
- Plant response rating, Johnsongrass (johnsongrass; [2]): 70
- Plant response rating, Johnsongrass (johnsongrass; [3]): 80
- Plant response rating, Johnsongrass (johnsongrass; [4]): 90
- Plant response rating, Johnsongrass (johnsongrass; [5]): 100
- Plant response rating, Johnsongrass (johnsongrass; [6]): 60
- Plant response rating, Johnsongrass (johnsongrass; [7]): 10

Compound: CCc1nn(C(C)C)nc1C(=O)Nc1cccc(C(=O)N(C)CC)c1 [Compound 386]
- Plant response rating, Barnyardgrass (barnyardgrass; [3]): 80
- Plant response rating, Barnyardgrass (barnyardgrass; [4]): 100
- Plant response rating, Prickly Sida (prickly sida; [3]): 100
- Plant response rating, Prickly Sida (prickly sida; [4]): 100
- Plant response rating, Black Mustard (mustard; [4]): 70
- Plant response rating, Ragweed (common ragweed; [3]): 20
- Plant response rating, Ragweed (common ragweed; [4]): 60
- Plant response rating, Sandbur (southern sandbur; [3]): 40
- Plant response rating, Sandbur (southern sandbur; [4]): 40
- Plant response rating, Spiderwort (tropical spiderwort; [3]): 10
- Plant response rating, Spiderwort (tropical spiderwort; [4]): 70
- Plant response rating, Bluegrass (annual bluegrass; [3]): 60
- Plant response rating, Bluegrass (annual bluegrass; [4]): 95
- Plant response rating, Chickweed (common chickweed; [3]): 95
- Plant response rating, Chickweed (common chickweed; [4]): 95
- Plant response rating, Morningglory (pitted morningglory; [3]): 20
- Plant response rating, Morningglory (pitted morningglory; [4]): 40
- Plant response rating, Crabgrass, Large (large crabgrass; [3]): 95
- Plant response rating, Crabgrass, Large (large crabgrass; [4]): 95
- Plant response rating, Johnsongrass (johnsongrass; [3]): 75
- Plant response rating, Johnsongrass (johnsongrass; [4]): 80

Compound: CCc1nn(C(C)C)nc1C(=O)Nc1cccc(C(=O)N2CCCCC2)c1 [Compound 385]
- Plant response rating, Barnyardgrass (barnyardgrass; [2]): 20
- Plant response rating, Barnyardgrass (barnyardgrass; [3]): 50
- Plant response rating, Barnyardgrass (barnyardgrass; [4]): 70
- Plant response rating, Prickly Sida (prickly sida; [2]): 10
- Plant response rating, Prickly Sida (prickly sida; [3]): 100
- Plant response rating, Prickly Sida (prickly sida; [4]): 100
- Plant response rating, Black Mustard (mustard; [2]): 0
- Plant response rating, Black Mustard (mustard; [4]): 30
- Plant response rating, Ragweed (common ragweed; [2]): 0
- Plant response rating, Ragweed (common ragweed; [3]): 0
- Plant response rating, Ragweed (common ragweed; [4]): 0
- Plant response rating, Sandbur (southern sandbur; [2]): 0
- Plant response rating, Sandbur (southern sandbur; [3]): 10
- Plant response rating, Sandbur (southern sandbur; [4]): 40
- Plant response rating, Spiderwort (tropical spiderwort; [3]): 0
- Plant response rating, Spiderwort (tropical spiderwort; [4]): 0
- Plant response rating, Bluegrass (annual bluegrass; [2]): 0
- Plant response rating, Bluegrass (annual bluegrass; [3]): 10
- Plant response rating, Bluegrass (annual bluegrass; [4]): 30
- Plant response rating, Chickweed (common chickweed; [2]): 20
- Plant response rating, Chickweed (common chickweed; [3]): 20
- Plant response rating, Chickweed (common chickweed; [4]): 60
- Plant response rating, Morningglory (pitted morningglory; [2]): 10
- Plant response rating, Morningglory (pitted morningglory; [3]): 10
- Plant response rating, Morningglory (pitted morningglory; [4]): 10
- Plant response rating, Crabgrass, Large (large crabgrass; [2]): 80
- Plant response rating, Crabgrass, Large (large crabgrass; [3]): 80
- Plant response rating, Crabgrass, Large (large crabgrass; [4]): 80
- Plant response rating, Johnsongrass (johnsongrass; [2]): 10
- Plant response rating, Johnsongrass (johnsongrass; [3]): 10
- Plant response rating, Johnsongrass (johnsongrass; [4]): 30
